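Tested at 5 concentrations; 48 h exposure; 96-well plates; endpoints linearly interpolated, else capped at highest concentration. GI50: concentration for 50% inhibition of growth. TGI: concentration producing complete growth inhibition.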
Experiments:
Experiment in all cases: inhibition of tumour cell growth, NCI panel, 48 h
[1] = system: 786-0 renal
[2] = system: A498 renal
[3] = system: A549 NSCLC
[4] = system: ACHN renal
[5] = system: BT-549 breast
[6] = system: CAKI-1 renal
[7] = system: CCRF-CEM leukemia
[8] = system: COLO 205 colon
[9] = system: DU-145 prostate
[10] = system: EKVX NSCLC
[11] = system: HCC-2998 colon
[12] = system: HCT-116 colon
[13] = system: HCT-15 colon
[14] = system: HL-60(TB) leukemia
[15] = system: HOP-62 NSCLC
[16] = system: HOP-92 NSCLC
[17] = system: HS 578T breast
[18] = system: HT29 colon
[19] = system: IGROV1 ovarian
[20] = system: K-562 leukemia
[21] = system: KM12 colon
[22] = system: LOX IMVI melanoma
[23] = system: M14 melanoma
[24] = system: MALME-3M melanoma
[25] = system: MCF7 breast
[26] = system: MDA-MB-231 breast
[27] = system: MDA-MB-435
[28] = system: MDA-MB-468 breast
[29] = system: MOLT-4 leukemia
[30] = system: NCI-H226 lung
[31] = system: NCI-H23 lung
[32] = system: NCI-H460 lung
[33] = system: NCI-H522 lung
[34] = system: OVCAR-3 ovarian
[35] = system: OVCAR-4 ovarian
[36] = system: OVCAR-5 ovarian
[37] = system: OVCAR-8 ovarian
[38] = system: PC-3 prostate
[39] = system: RPMI-8226 leukemia
[40] = system: RXF 393 renal
[41] = system: SF-268 CNS
[42] = system: SF-295 CNS
[43] = system: SF-539 CNS
[44] = system: SK-MEL-2 melanoma
[45] = system: SK-MEL-28 melanoma
[46] = system: SK-MEL-5 melanoma
[47] = system: SK-OV-3 ovarian
[48] = system: SN12C renal
[49] = system: SNB-19 CNS
[50] = system: SNB-75 CNS
[51] = system: SR leukemia
[52] = system: SW-620 colon
[53] = system: T-47D breast
[54] = system: TK-10 renal
[55] = system: U251 CNS
[56] = system: UACC-257 melanoma
[57] = system: UACC-62 melanoma
[58] = system: UO-31 renal

For `COc1ccc2nc(Cl)c(-c3cc(-c4ccccc4)nc(=O)[nH]3)cc2c1`, the GI50 [1] was 12.4 µM, the TGI [1] was 40.2 µM and the GI50 [2] was 26.1 µM. The TGI [2] was 74.3 µM, the GI50 [3] was 20.7 µM and the TGI [3] was > 100 µM. It also gave a GI50 [4] of 14.7 µM, a TGI [4] of 32.3 µM and a GI50 [5] of 11.9 µM. It also gave a TGI [5] of 28.7 µM, a GI50 [6] of 12 µM and a TGI [6] of 28.9 µM. It also gave a GI50 [7] of 2.96 µM, a TGI [7] of 34.3 µM and a GI50 [8] of 17 µM. It also gave a TGI [8] of 41.5 µM, a GI50 [9] of 8.82 µM and a TGI [9] of 29.3 µM. For the same compound, the GI50 [10] was 24 µM, the TGI [10] was > 100 µM and the GI50 [11] was 16.5 µM. It also gave a TGI [11] of 31.8 µM, a GI50 [12] of 6.67 µM and a TGI [12] of 26.2 µM. For the same compound, the GI50 [13] was 6.66 µM, the TGI [13] was 33.6 µM and the GI50 [14] was 5.32 µM. For the same compound, the TGI [14] was 33 µM, the GI50 [15] was 14.8 µM and the TGI [15] was 34.4 µM. For the same compound, the GI50 [16] was 6.8 µM, the TGI [16] was 42.5 µM and the GI50 [17] was 24.8 µM. For the same compound, the TGI [17] was > 100 µM, the GI50 [18] was 18.3 µM and the TGI [18] was 40.8 µM. It also gave a GI50 [19] of 17.9 µM, a TGI [19] of 44.1 µM and a GI50 [20] of 2.98 µM. It also gave a TGI [20] of 59.2 µM, a GI50 [21] of 4.25 µM and a TGI [21] of 17.1 µM. It also gave a GI50 [22] of 3.86 µM, a TGI [22] of 33.5 µM and a GI50 [23] of 18.5 µM. For the same compound, the TGI [23] was 46.8 µM, the GI50 [24] was 15.9 µM and the TGI [24] was 31.9 µM. It also gave a GI50 [25] of 4.22 µM, a TGI [25] of 31.6 µM and a GI50 [26] of 16.7 µM. For the same compound, the TGI [26] was 43.7 µM, the GI50 [27] was 14.8 µM and the TGI [27] was 34.1 µM. It also gave a GI50 [28] of 11.4 µM, a TGI [28] of 33.8 µM and a GI50 [29] of 3.63 µM. For the same compound, the TGI [29] was 54.1 µM, the GI50 [30] was 12.7 µM and the TGI [30] was 41.7 µM. It also gave a GI50 [31] of 12 µM, a TGI [31] of 32.7 µM and a GI50 [32] of 5.69 µM. The TGI [32] was 20.6 µM, the GI50 [33] was 17 µM and the TGI [33] was 42.4 µM. It also gave a GI50 [34] of 7.42 µM, a TGI [34] of 23.8 µM and a GI50 [35] of 20.4 µM. For the same compound, the TGI [35] was 79.9 µM, the GI50 [36] was 18.2 µM and the TGI [36] was 38.1 µM. It also gave a GI50 [37] of 16.6 µM, a TGI [37] of 88.8 µM and a GI50 [38] of 14.2 µM. It also gave a TGI [38] of 56 µM, a GI50 [39] of 3.08 µM and a TGI [39] of 13.5 µM. For the same compound, the GI50 [40] was 13.3 µM, the TGI [40] was 33 µM and the GI50 [41] was 14.6 µM. The TGI [41] was 35 µM, the GI50 [42] was 21.3 µM and the TGI [42] was 67.2 µM. It also gave a GI50 [43] of 11.2 µM, a TGI [43] of 23.9 µM and a GI50 [44] of 18.5 µM. The TGI [44] was 40.9 µM, the GI50 [45] was 15.9 µM and the TGI [45] was 31 µM. It also gave a GI50 [46] of 16.8 µM, a TGI [46] of 31.5 µM and a GI50 [47] of 20.9 µM. It also gave a TGI [47] of 51.2 µM, a GI50 [48] of 19.4 µM and a TGI [48] of 59 µM. For the same compound, the GI50 [49] was 10.7 µM, the TGI [49] was 26 µM and the GI50 [50] was 13.1 µM. It also gave a TGI [50] of 37.1 µM, a GI50 [51] of 1.55 µM and a TGI [51] of 5.47 µM. For the same compound, the GI50 [52] was 6.44 µM, the TGI [52] was 35.1 µM and the GI50 [53] was 25.8 µM. For the same compound, the TGI [53] was > 100 µM, the GI50 [54] was 29 µM and the TGI [54] was > 100 µM. It also gave a GI50 [55] of 4.45 µM, a TGI [55] of 19.9 µM and a GI50 [56] of 18.1 µM. For the same compound, the TGI [56] was 37.6 µM, the GI50 [57] was 13.8 µM and the TGI [57] was 28.6 µM. The GI50 [58] was 10.5 µM and the TGI [58] was 22.4 µM.

From PubChem BioAssay (NCI)
